Data published in ChEMBL document CHEMBL5107972 (RSC Med Chem, 2022).
≈ marks a conversion by molar mass, not a printed value. Calls of active or inactive are those of the source. The rule behind the calls is not given here.

Columns and labels:
[1] = system: Mycobacterium tuberculosis; assay: Antitubercular activity against Mycobacterium tuberculosis H37Rv ATCC 27294 assessed as inhibition of bacterial growth incubated for 7 days by Presto blue resazurin microtiter plate assay; type: functional; conditions: H37Rv ATCC 27294, 168 h, time 7 day
Staphylococcus aureus = assay: Antibacterial activity against Staphylococcus aureus ATCC 29213 assessed as inhibition of bacterial growth incubated for 16 to 18 hrs by CLSI based microdilution method; type: functional; conditions: time 16-18 hrs
[2] = system: Mycobacterium tuberculosis; assay: Bactericidal activity against Mycobacterium tuberculosis H37Rv ATCC 27294 assessed as reduction in colony formation at 1 to 10 times of MIC incubated for 6 to 7 days by time-kill assay; type: functional, organism-based; conditions: time 6-7 day

Row | SMILES | MIC [1] [µg/mL] | MIC (Staphylococcus aureus) [µg/mL] | Activity [2]
1 | COc1ccc(-n2cc(CSc3nc(=O)c4cc(Cl)cc([N+](=O)[O-])c4s3)nn2)cc1 | 32 (≈ 69.3 µM) | ≥ 64 | 
2 | COc1cc(-n2cc(CSc3nc(=O)c4cc(Cl)cc([N+](=O)[O-])c4s3)nn2)cc(OC)c1OC | 64 (≈ 123 µM) | ≥ 64 | 
3 | O=c1nc(SCc2cn(-c3ccc([N+](=O)[O-])cc3)nn2)sc2c([N+](=O)[O-])cc(Cl)cc12 | 16 (≈ 33.6 µM) | ≥ 64 | 
4 | O=C(O)c1cccc(-n2cc(CSc3nc(=O)c4cc(Cl)cc([N+](=O)[O-])c4s3)nn2)c1 | > 64 | ≥ 64 | 
5 | O=c1ccc2cc(-n3cc(CSc4nc(=O)c5cc(Cl)cc([N+](=O)[O-])c5s4)nn3)ccc2o1 | 32 (≈ 64 µM) | ≥ 64 | 
6 | CC[C@@H](CO)NCCN[C@@H](CC)CO [ETHAMBUTOL] | 1 (≈ 4.89 µM) |  | 
7 | O=c1nc(SCc2cn(-c3ccccc3)nn2)sc2c([N+](=O)[O-])cc(Cl)cc12 | 32 (≈ 74.1 µM) | ≥ 64 | 
8 | COc1ccc(-n2cc(CSc3nc(=O)c4cc(Cl)cc([N+](=O)[O-])c4s3)nn2)cc1OC | 32 (≈ 65 µM) | ≥ 64 | 
9 | O=c1nc(SCc2cn(-c3ccc(F)cc3)nn2)sc2c([N+](=O)[O-])cc(Cl)cc12 | 8 (≈ 17.8 µM) | ≥ 64 | 
10 | O=c1nc(SCc2cn(-c3ccc(F)c(Cl)c3)nn2)sc2c([N+](=O)[O-])cc(Cl)cc12 | 8 (≈ 16.5 µM) | ≥ 64 | 
11 | CCCCCCOc1ccc(-n2cc(CSc3nc(=O)c4cc(Cl)cc([N+](=O)[O-])c4s3)nn2)cc1 | 8 (≈ 15 µM) | ≥ 64 | 
12 | Cc1cccc(-n2cc(CSc3nc(=O)c4cc(Cl)cc([N+](=O)[O-])c4s3)nn2)c1 | 8 (≈ 17.9 µM) | ≥ 64 | 
13 | O=c1nc(SCc2cn(-c3ccc(O)cc3)nn2)sc2c([N+](=O)[O-])cc(Cl)cc12 | 64 (≈ 143 µM) | ≥ 64 | 
14 | CC(C)Oc1cccc(-n2cc(CSc3nc(=O)c4cc(Cl)cc([N+](=O)[O-])c4s3)nn2)c1 | 64 (≈ 131 µM) | ≥ 64 | 
15 | O=c1nc(SCc2cn(-c3cccc(F)c3)nn2)sc2c([N+](=O)[O-])cc(Cl)cc12 | 8 (≈ 17.8 µM) | ≥ 64 | 
16 | O=c1nc(SCc2cn(-c3ccc(F)c(F)c3)nn2)sc2c([N+](=O)[O-])cc(Cl)cc12 | 8 (≈ 17.1 µM) | ≥ 64 | 
17 | Cc1ccc(-n2cc(CSc3nc(=O)c4cc(Cl)cc([N+](=O)[O-])c4s3)nn2)c(C)c1 | 32 (≈ 69.6 µM) | ≥ 64 | 
18 | O=c1nc(SCc2cn(-c3ccc(N4CCOCC4)c(F)c3)nn2)sc2c([N+](=O)[O-])cc(Cl)cc12 | 64 (≈ 120 µM) | ≥ 64 | 
19 | O=c1nc(SCc2cn(-c3cccc(C(F)(F)F)c3)nn2)sc2c([N+](=O)[O-])cc(Cl)cc12 | 8 (≈ 16 µM) | ≥ 64 | 
20 | NS(=O)(=O)c1ccc(-n2cc(CSc3nc(=O)c4cc(Cl)cc([N+](=O)[O-])c4s3)nn2)cc1 | > 64 | ≥ 64 | 

Row | SMILES | MIC [1] [µg/mL] | MIC (Staphylococcus aureus) [µg/mL] | Activity [2]
21 | CN[C@@H]1[C@H](O[C@H]2[C@H](O[C@H]3[C@H](O)[C@@H](O)[C@H](N=C(N)N)[C@@H](O)[C@@H]3N=C(N)N)O[C@@H](C)[C@]2(O)C=O)O[C@@H](CO)[C@H](O)[C@H]1O [STREPTOMYCIN] | 1 (≈ 1.72 µM) |  | 
22 | O=c1nc(SCc2cn(-c3cccnc3)nn2)sc2c([N+](=O)[O-])cc(Cl)cc12 | 32 (≈ 73.9 µM) | ≥ 64 | 
23 | O=c1nc(SCc2cn(-c3ccc(N4CCCCC4)c(F)c3)nn2)sc2c([N+](=O)[O-])cc(Cl)cc12 | 64 (≈ 120 µM) | ≥ 64 | 
24 | O=c1nc(SCc2cn(-c3ccc4ccccc4c3)nn2)sc2c([N+](=O)[O-])cc(Cl)cc12 | 64 (≈ 133 µM) | ≥ 64 | 
25 | O=c1nc(SCc2cn(-c3cccc([N+](=O)[O-])c3)nn2)sc2c([N+](=O)[O-])cc(Cl)cc12 | 32 (≈ 67.1 µM) | ≥ 64 | 
26 | NS(=O)(=O)c1cccc(-n2cc(CSc3nc(=O)c4cc(Cl)cc([N+](=O)[O-])c4s3)nn2)c1 | > 64 | ≥ 64 | 
27 | O=c1nc(SCc2cn(-c3ccccc3Cl)nn2)sc2c([N+](=O)[O-])cc(Cl)cc12 | 32 (≈ 68.6 µM) | ≥ 64 | 
28 | NNC(=O)c1ccncc1 [ISONIAZID] | 0.03 (≈ 0.219 µM) |  | 
29 | O=c1nc(SCc2cn(-c3ccccc3F)nn2)sc2c([N+](=O)[O-])cc(Cl)cc12 | 16 (≈ 35.6 µM) | ≥ 64 | 
30 | Cc1ccc(-n2cc(CSc3nc(=O)c4cc(Cl)cc([N+](=O)[O-])c4s3)nn2)cc1 | 8 (≈ 17.9 µM) | ≥ 64 | 
31 | O=C(O)c1ccc(-n2cc(CSc3nc(=O)c4cc(Cl)cc([N+](=O)[O-])c4s3)nn2)cc1O | > 64 | ≥ 64 | 
32 | COc1cc(OC)cc(-n2cc(CSc3nc(=O)c4cc(Cl)cc([N+](=O)[O-])c4s3)nn2)c1 | > 64 | ≥ 64 | 
33 | O=C(O)c1ccc(-n2cc(CSc3nc(=O)c4cc(Cl)cc([N+](=O)[O-])c4s3)nn2)cc1 | > 64 | ≥ 64 | 
34 | O=c1nc(SCc2cn(-c3ccc(Oc4ccccc4)cc3)nn2)sc2c([N+](=O)[O-])cc(Cl)cc12 | 32 (≈ 61.1 µM) | ≥ 64 | 
35 | CO[C@H]1/C=C/O[C@@]2(C)Oc3c(C)c(O)c4c(O)c(c(/C=N/N5CCN(C)CC5)c(O)c4c3C2=O)NC(=O)/C(C)=C\C=C\[C@H](C)[C@H](O)[C@@H](C)[C@@H](O)[C@@H](C)[C@H](OC(C)=O)[C@@H]1C [RIFAMPIN] | 0.06 (≈ 0.0729 µM) |  | Active
36 | O=c1nc(SCc2cn(-c3ccc(N4CCCCC4)cc3)nn2)sc2c([N+](=O)[O-])cc(Cl)cc12 | 64 (≈ 124 µM) | ≥ 64 | 
37 | O=c1nc(SCc2cn(-c3ccc(Br)cc3)nn2)sc2c([N+](=O)[O-])cc(Cl)cc12 | 4 (≈ 7.83 µM) | ≥ 64 | 
38 | O=c1nc(SCc2cn(-c3cccc(Cl)c3)nn2)sc2c([N+](=O)[O-])cc(Cl)cc12 | 16 (≈ 34.3 µM) | ≥ 64 | 
39 | N#Cc1cccc(-n2cc(CSc3nc(=O)c4cc(Cl)cc([N+](=O)[O-])c4s3)nn2)c1 | 64 (≈ 140 µM) | ≥ 64 | 
40 | CC(=O)c1cccc(-n2cc(CSc3nc(=O)c4cc(Cl)cc([N+](=O)[O-])c4s3)nn2)c1 | 32 (≈ 67.5 µM) | ≥ 64 | 
